Laboratory results published in PubChem BioAssay (NCI).
Several values for one entry are separate records, joined by “and”; a condition that tells them apart may be missing. Identical values can stand only once.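 How tested: cells in 96-well plates exposed to compound for 48 hours at five concentrations. Definition used: TGI = concentration required for complete inhibition of growth.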

What was measured:
Assay in all cases: DTP human tumour cell line panel, 48 h
SK-MEL-2 melanoma = tested on: SK-MEL-2 melanoma
MDA-N = tested on: MDA-N
SF-268 CNS = tested on: SF-268 CNS
EKVX NSCLC = tested on: EKVX NSCLC
LOX IMVI melanoma = tested on: LOX IMVI melanoma
K-562 leukemia = tested on: K-562 leukemia
BT-549 breast = tested on: BT-549 breast
HT29 colon = tested on: HT29 colon
HCT-15 colon = tested on: HCT-15 colon
HOP-92 NSCLC = tested on: HOP-92 NSCLC
SK-MEL-5 melanoma = tested on: SK-MEL-5 melanoma
M14 melanoma = tested on: M14 melanoma
OVCAR-3 ovarian = tested on: OVCAR-3 ovarian
SN12C renal = tested on: SN12C renal
SF-539 CNS = tested on: SF-539 CNS
SF-295 CNS = tested on: SF-295 CNS
ACHN renal = tested on: ACHN renal
UO-31 renal = tested on: UO-31 renal
SK-MEL-28 melanoma = tested on: SK-MEL-28 melanoma
A498 renal = tested on: A498 renal

Structure (SMILES)	TGI (SK-MEL-2 melanoma)	TGI (MDA-N) [µM]	TGI (SF-268 CNS) [µM]	TGI (EKVX NSCLC)	TGI (LOX IMVI melanoma)	TGI (K-562 leukemia)	TGI (BT-549 breast)	TGI (HT29 colon) [µM]	TGI (HCT-15 colon)	TGI (HOP-92 NSCLC) [µM]	TGI (SK-MEL-5 melanoma)	TGI (M14 melanoma) [µM]	TGI (OVCAR-3 ovarian) [µM]	TGI (SN12C renal) [µM]	TGI (SF-539 CNS) [µM]	TGI (SF-295 CNS) [µM]	TGI (ACHN renal) [µM]	TGI (UO-31 renal) [µM]	TGI (SK-MEL-28 melanoma) [µM]	TGI (A498 renal) [µM]
COC1CC(OC2C(C)OC(OC3C(C)OC(OC4C(O)CC(O[C@H]5CC[C@@]6(C)C(=CC[C@]7(O)[C@@H]6C[C@@H](OC(=O)/C=C/c6ccccc6)[C@@]6(C)[C@]7(O)CC[C@@]6(O)C(C)=O)C5)OC4C)CC3OC)CC2OC)OC(C)C1O (stereo partly drawn)	> 6.25 µM	> 6.25	> 6.25	> 6.25 µM	> 6.25 µM	> 6.25 µM	> 6.25 µM	> 6.25	> 6.25 µM	> 6.25	> 6.25 µM	> 6.25	> 6.25	> 6.25	> 6.25	> 6.25	> 6.25	> 6.25		
Cn1nc2ccc3nccc(N4CCN(CCO)CC4)c3c2n1	> 100 µM	> 100	> 100			> 100 µM	> 100 µM	> 100	> 100 µM		> 100 µM	> 100	> 100	> 100		> 100	> 100	> 100	> 100	> 100
CC(=O)N1OC(C)CC1Nc1ccc(Br)cc1 (stereo not drawn)	> 100 µM	> 100	> 100	> 100 µM		> 100 µM	> 100 µM	> 100	> 100 µM	> 100	> 100 µM	> 100	> 100	> 100	> 100	> 100	> 100	> 100		> 100
CCCCc1c2c(nc3c1CCCC3O)CCCC2 (stereo not drawn)	> 100 µM	> 100	> 100	> 100 µM		> 100 µM	> 100 µM	> 100	> 100 µM	> 100	> 100 µM	> 100	> 100	> 100	> 100	> 100	> 100	> 100		> 100
c1ccc(N=C(Nc2ccccc2)N2CCCCC2)cc1	> 100 µM	> 100	> 100	> 100 µM	> 100 µM	> 100 µM	> 100 µM	> 100	> 100 µM	> 100		84.9	> 100	> 100		> 100	> 100	> 100	> 100	
Cc1nc(Nc2ccccc2Cl)sc1C(=O)CC(=O)C(=O)Nc1c(Cl)cccc1Cl	56.2 µM	> 100	> 100	71.1 µM	85.8 µM	> 100 µM	86.2 µM	> 100	> 100 µM	> 100	> 100 µM	> 100	57.8	> 100	83	> 100	> 100	86.1	85.6	
CC(C)(C)C(=O)C(C(=O)C(C)(C)C)C(=O)C(C)(C)C	> 100 µM	> 100	> 100	> 100 µM	> 100 µM	> 100 µM		> 100	> 100 µM	> 100	> 100 µM	> 100	> 100	> 100	> 100	> 100	> 100	> 100	> 100	> 100
CC(=O)O[C@H]1C(=O)[C@@]2(C)[C@H]([C@H](OC(=O)c3cccc(C(F)(F)F)c3)[C@]3(O)C[C@H](OC(=O)[C@H](O)[C@@H](NC(=O)c4ccccc4)c4ccccc4)C(C)=C1C3(C)C)[C@]1(OC(C)=O)CO[C@@H]1C[C@@H]2O		< 0.0025	> 25	> 25 µM		4.85 µM	> 15.5 µM	3.84	> 25 µM	15.1	4.33 µM	11.9	8.03	> 25	0.0105	13.3	> 9.46	> 15.9	> 25	> 13.6
CS/C1=C(\c2ccc(C)cc2)N(c2ccccc2)C(=O)C(=O)N(c2ccccc2)/C(c2ccc(C)cc2)=C(/SC)SS1	> 100 µM	> 100	> 100	> 100 µM	> 100 µM	> 100 µM		> 100	> 100 µM	> 100		> 100	> 100	> 100	> 100	> 100	> 100	> 100	> 100	> 100
CC(=O)OCC(OC(C)=O)C(OC(C)=O)C(OC(C)=O)C(C=NN(C(C)=O)S(=O)(=O)c1ccc(/C=C2\NC(=O)N(C)C2=O)cc1)OC(C)=O (stereo not drawn)	58 µM and > 100 µM	> 100	> 100	78.5 µM and > 100 µM	33 µM and 66 µM	> 100 µM and 57.1 µM	49.4 µM and > 100 µM	> 100	61.9 µM and 67.1 µM		90.3 µM and 86.2 µM	> 100	> 100	> 100	56.5	> 100	> 100	> 100		> 100
OC1(c2ccccc2)CC2CCC(C1)N2CCCC1(c2ccc(F)cc2)OCCO1 (stereo not drawn)	> 100 µM	> 100	> 100	> 100 µM	> 100 µM	> 100 µM	> 100 µM	> 100	> 100 µM		44.3 µM	44.9	> 100	> 100	> 100	10.9	> 100	> 100	> 100	> 100
O=C(COc1ccc(OCC(=O)N2C(=O)CSC2=Nc2ccccc2)cc1)N1C(=O)CSC1=Nc1ccccc1	> 100 µM	79.7	> 100	> 100 µM		> 100 µM	> 100 µM	41.2	> 100 µM	> 100	33.3 µM	> 100		> 100		> 100	> 100	> 100	> 100	> 100
COc1ccc2nc3ccc(OC)cc3c(SCc3ccc([N+](=O)[O-])cc3)c2c1	> 100 µM	> 100	> 100	> 100 µM	> 100 µM	> 100 µM		> 100	> 100 µM	> 100		> 100	> 100	> 100	> 100	> 100	> 100	> 100	> 100	> 100
O=C1C=C(Sc2ccccc2)c2nccc3c2c1nc1ccccc13	27.3 µM	33.3	26.7	41 µM	28.6 µM		31.4 µM	26.8	26 µM	42.3		31.7	19.7	32.2	31.1	> 100	54.8	27.3	38.8	
C=C(C)C1Cc2c(cc(O)c3c(=O)c4c(oc23)C(O)Oc2cc(OC)c(OC)cc2-4)O1 (stereo not drawn)		> 10	> 10	> 10 µM		> 10 µM	> 10 µM	> 10	> 10 µM	> 10		> 10	> 10	> 10	> 10	> 10	> 10	> 10	> 10	> 10
FC(F)(Sc1ccccn1)c1nc2ccccc2o1	> 100 µM	> 100	> 100			> 100 µM	> 100 µM	> 100	> 100 µM	> 100	> 100 µM	> 100	> 100	> 100	> 100	> 100	> 100	> 100	> 100	> 100
Cc1c(C)c2c(c(N)c1C#N)C(=O)N(Nc1ccccc1)C2=O	> 100 µM	> 100	> 100	> 100 µM	> 100 µM	> 100 µM	> 100 µM		> 100 µM	> 100	> 100 µM	> 100	> 100	> 100	> 100	> 100	> 100	> 100	> 100	
Cc1ccc(C)n1-n1c(Cc2ccccc2)n[nH]c1=O	> 100 µM	> 100	> 100	> 100 µM	> 100 µM	> 100 µM	> 100 µM	> 100	> 100 µM		> 100 µM	> 100	> 100	> 100		> 100	> 100	> 100	> 100	> 100
CC(=O)Nc1ccc(NC(=O)c2c(Cl)c(Cl)c(Cl)c(Cl)c2-c2nc3ccccc3[nH]2)cc1		> 100	> 100	> 100 µM		> 100 µM	> 100 µM	> 100	> 100 µM	71.7	> 100 µM	> 100	> 100	> 100	> 100	> 100	> 100	> 100	> 100	> 100
O=C1C(N2CCNCC2)=C(Cl)C(=O)c2ncccc21	> 10 µM	> 10	> 10	> 10 µM		> 10 µM	> 10 µM	> 10	> 10 µM	7.82	> 10 µM	> 10	> 10	> 10	> 10	> 10	> 10		> 10	
Cc1nc2ccc(S(=O)(=O)Nc3ccccc3)cc2c(=O)n1NC(=O)CNc1ccccc1	> 100 µM	> 100	> 100	> 100 µM	> 100 µM	> 100 µM	> 100 µM	> 100	> 100 µM	> 100		> 100	> 100	> 100	> 100	> 100	> 100	> 100	> 100	
CC(C)CC1C(=O)NCCC(NC(=O)C(N)Cc2ccc(O)cc2)C(=O)NC(Cc2ccccc2)C(=O)NC(Cc2ccccc2)NC1=O (stereo not drawn)	> 100 µM	> 100	> 100	> 100 µM	> 100 µM	> 100 µM		> 100	> 100 µM	> 100	> 100 µM	> 100	> 100	> 100	> 100	> 100	> 100	> 100	> 100	> 100
COc1ccc(C(=O)Cn2c(C(=O)/C=C/c3ccco3)nc3ccccc32)cc1	51.6 µM	> 100	91.4		> 100 µM	> 100 µM	> 100 µM	> 100	> 100 µM	> 100	> 100 µM	> 100	72.3	> 100	> 100		> 100	> 100	> 100	> 100
CC(=O)NC(C)(C)C1CC=C(C)CC1 (stereo not drawn)		> 100	> 100	> 100 µM	> 100 µM	> 100 µM	> 100 µM	> 100	> 100 µM		> 100 µM	> 100	> 100	> 100	> 100	> 100	> 100	> 100	> 100	> 100
c1ccc(Cc2nc(Cc3n[nH]c(Cc4ccccc4)n3)n[nH]2)cc1	> 100 µM	> 100	> 100	> 100 µM	> 100 µM	> 100 µM	> 100 µM	> 100	> 100 µM	> 100	> 100 µM	> 100	> 100	> 100	> 100	> 100	> 100	> 100	> 100	
